Measurements taken from patent publication US11427544B2, “Histone deacetylase 6 inhibitors and use thereof” (TAIPEI MEDICAL UNIVERSITY, priority 2016, dated 2022).
Like-named read-outs stand apart in the source and are kept apart here.

Experiments:
HDAC1 = molecular target: T1, HDAC1 (Homo sapiens, UniProt Q13547); test: Fluorogenic HDAC assay, HDAC1; type: biochemical; settings: recombinant HDAC1; read-out: Enzyme IC50 HDAC1
T1 construct: purchased BPS Bioscience Corp
Source text: (§1) Of note, there are eighteen human HDACs. Eleven of them, designated as HDAC1-11, are zinc-dependent. Seven of them, designated as Sirt1-7, are NAD+-dependent.
(§2) Fluorogenic HDAC assay kits were used to assess the ability of HDAC inhibitors to inhibit deacetylation of lysine residues on a substrate by recombinant proteins HDAC1, 3, 4, 5, 6, 7, 8, 9 and Sirt1 according to the manufacturer's instructions (BPS Bioscience Corp., San Diego, Calif., USA).

[1] = tested on: A549 lung cancer cell line; test: Antiproliferative activity, A549; type: cell-based, human
Experimental: (§3) A study was conducted to evaluate the inhibitory activity of compounds of Formula (I) in inhibiting HDAC6, antiproliferative activity of test compounds in suppressing cancer cell growth, and selectivity of inhibiting HDAC6 over other HDAC isoforms.
(§4) The study was performed according to the protocol reported in Hsieh et al., Cell Death and Disease, 2014, April; 5:e1166.
(§5) Shown in Table 2 below are antiproliferative activities (measured by their half maximal concentration for inhibiting cell growth, i.e., GI50) of the test compounds against various cancer cell lines.

[2] = tested on: PC-3 prostate cancer cell line; test: Antiproliferative activity, PC-3; type: cell-based, human
Experimental: as §3, §4, §5

HDAC6 = molecular target: T2, HDAC6 (Homo sapiens, UniProt Q9UBN7); test: Fluorogenic HDAC assay, HDAC6; type: biochemical; settings: recombinant HDAC6; read-out: Enzyme IC50 HDAC6
T2 construct: purchased BPS Bioscience Corp
T2 sequence (Q9UBN7 1-1215): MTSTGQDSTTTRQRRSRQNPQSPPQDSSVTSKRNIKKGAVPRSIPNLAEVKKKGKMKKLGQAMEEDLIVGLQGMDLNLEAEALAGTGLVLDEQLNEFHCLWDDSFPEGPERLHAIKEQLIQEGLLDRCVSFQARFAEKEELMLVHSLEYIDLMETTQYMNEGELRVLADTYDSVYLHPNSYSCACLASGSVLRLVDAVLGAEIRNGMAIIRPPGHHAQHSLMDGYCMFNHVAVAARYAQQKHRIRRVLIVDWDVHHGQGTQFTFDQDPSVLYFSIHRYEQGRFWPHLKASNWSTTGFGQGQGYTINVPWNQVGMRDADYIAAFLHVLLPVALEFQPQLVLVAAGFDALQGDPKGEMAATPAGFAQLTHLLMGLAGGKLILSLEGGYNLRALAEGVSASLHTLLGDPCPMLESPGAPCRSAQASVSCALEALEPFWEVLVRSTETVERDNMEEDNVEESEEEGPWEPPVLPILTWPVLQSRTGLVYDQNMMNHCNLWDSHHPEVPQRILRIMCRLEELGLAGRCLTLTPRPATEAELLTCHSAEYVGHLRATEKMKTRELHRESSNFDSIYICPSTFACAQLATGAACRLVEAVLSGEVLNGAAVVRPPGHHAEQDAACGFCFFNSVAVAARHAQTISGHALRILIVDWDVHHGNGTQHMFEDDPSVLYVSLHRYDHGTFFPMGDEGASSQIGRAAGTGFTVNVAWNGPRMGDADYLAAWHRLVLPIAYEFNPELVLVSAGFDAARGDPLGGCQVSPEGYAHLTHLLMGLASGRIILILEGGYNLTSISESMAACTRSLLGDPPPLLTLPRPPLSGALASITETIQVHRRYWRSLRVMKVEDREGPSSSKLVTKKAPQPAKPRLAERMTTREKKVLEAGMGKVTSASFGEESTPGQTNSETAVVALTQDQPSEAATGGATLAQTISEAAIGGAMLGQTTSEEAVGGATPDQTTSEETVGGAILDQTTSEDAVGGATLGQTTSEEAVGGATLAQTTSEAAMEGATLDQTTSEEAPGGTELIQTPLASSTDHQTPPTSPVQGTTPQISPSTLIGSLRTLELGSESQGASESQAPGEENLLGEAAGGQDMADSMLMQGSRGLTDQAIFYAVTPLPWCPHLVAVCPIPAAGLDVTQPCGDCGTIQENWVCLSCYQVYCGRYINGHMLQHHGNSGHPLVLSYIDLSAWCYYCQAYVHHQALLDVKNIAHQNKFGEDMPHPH
Source text: as §1, §2

[3] = tested on: HCT116 colorectal cancer cell line; test: Antiproliferative activity, HCT116; type: cell-based; settings: Homo sapiens, HCT-116
Experimental: as §3, §4, §5

HL60 leukemia cell line = test: Antiproliferative activity, HL60; type: cell-based; settings: Homo sapiens, HL-60
Experimental: as §3, §4, §5

T1 sequence (Q13547 whole entry): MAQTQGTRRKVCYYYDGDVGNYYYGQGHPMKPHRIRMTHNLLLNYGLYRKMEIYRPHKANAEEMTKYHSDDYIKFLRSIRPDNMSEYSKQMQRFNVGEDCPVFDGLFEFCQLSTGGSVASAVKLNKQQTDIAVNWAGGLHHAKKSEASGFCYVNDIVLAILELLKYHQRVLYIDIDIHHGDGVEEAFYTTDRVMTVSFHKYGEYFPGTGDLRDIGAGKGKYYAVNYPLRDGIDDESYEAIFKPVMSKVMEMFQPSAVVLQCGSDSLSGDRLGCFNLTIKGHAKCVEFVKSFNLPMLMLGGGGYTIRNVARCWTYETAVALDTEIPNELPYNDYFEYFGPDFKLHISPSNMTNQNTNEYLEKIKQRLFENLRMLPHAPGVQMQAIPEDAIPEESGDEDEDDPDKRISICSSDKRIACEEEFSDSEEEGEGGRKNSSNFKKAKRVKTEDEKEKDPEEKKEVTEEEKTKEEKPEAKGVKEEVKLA

SMILES | GI50 ([1]; Homo sapiens) [µM] | GI50 ([2]; Homo sapiens) [µM] | GI50 [3] [µM] | further results
O=C(NO)c1ccc(C(=O)Nc2cccc3ncccc23)cc1 [Compound 16, N1-hydroxy-N4-(quinolin-5-yl)terephthalamide] | > 10 | > 10 | – | –
O=C(/C=C/c1ccc(C(=O)Nc2cccc3ncccc23)cc1)NO [Compound 18, (E)-4-(3-(hydroxyamino)-3-oxoprop-1-enyl)-N-(quinolin-5-yl)benzamide] | > 10 | > 10 | – | –
O=C(NO)c1ccc(CNc2ccc3ncccc3c2)cc1 [Compound 20, N-hydroxy-4-((quinolin-6-ylamino)methyl)benzamide] | > 10 | > 10 | – | IC50 (HDAC1): > 100 µM; IC50 (HDAC6): 0.019 µM
O=C(/C=C/c1ccc(CNc2ccc3ncccc3c2)cc1)NO [Compound 22, (E)-N-hydroxy-3-(4-((quinolin-6-ylamino)methyl)phenyl)acrylamide] | > 10 | > 10 | – | –
O=C(NO)c1ccc(C(=O)Nc2ccc3ncccc3c2)cc1 [Compound 24, N^1-hydroxy-N^4-(quinolin-6-yl)terephthalamide] | > 10 | > 10 | – | –
O=C(/C=C/c1ccc(C(=O)Nc2ccc3ncccc3c2)cc1)NO [Compound 26, (E)-4-(3-(hydroxyamino)-3-oxoprop-1-enyl)-N-(quinolin-6-yl)benzamide] | > 10 | > 10 | – | –
O=C(NO)c1ccc(C(=O)Nc2cccc3cccnc23)cc1 [Compound 32, N^1-hydroxy-N^4-(quinolin-8-yl)terephthalamide] | > 10 | > 10 | – | –
O=C(NO)c1cccc(CNc2cccc3cccnc23)c1 [Compound 36, N-hydroxy-3-((quinolin-8-ylamino)methyl)benzamide] | – | > 10 | > 10 | –
O=C(NO)c1cccc(C(=O)Nc2cccc3cccnc23)c1 [Compound 38, M-hydroxy-N^3-(quinolin-8-yl)isophthalamide] | – | > 10 | > 10 | –
O=C(NO)c1ccc(CNc2ccnc3ccccc23)cc1 [Compound 44, N-hydroxy-4-((quinolin-4-ylamino)methyl)benzamide] | – | – | 3.28 ± 0.48 | –
O=C(Cc1ccc(C(=O)Nc2cccc3cccnc23)cc1)NO [Compound 50, 4-(2-(hydroxyamino)-2-oxoethyl)-N-(quinolin-8-yl)benzamide] | > 10 | > 10 | – | –
O=C(NO)c1ccc(Nc2cccc3cccnc23)cc1 [Compound 59, N-hydroxy-4-(quinolin-8-ylamino)benzamide] | – | – | 3.32 ± 0.21 | GI50 (HL60 leukemia cell line): 6.64 ± 0.69 µM
O=C(NO)c1ccc(CNc2nccc3ccccc23)cc1 [Compound 61, N-hydroxy-4-((isoquinolin-1-ylamino)methyl)benzamide] | – | – | 0.66 ± 0.1 | GI50 (HL60 leukemia cell line): 1.17 ± 0.23 µM
O=C(NO)c1ccc(CNc2cncc3ccccc23)cc1 [Compound 63, N-hydroxy-4-((isoquinolin-4-ylamino)methyl)benzamide] | – | – | 1.2 ± 0.14 | GI50 (HL60 leukemia cell line): 1.96 ± 0.16 µM
O=C(NO)c1ccc(CNc2cccc3nccnc23)cc1 [Compound 66, N-hydroxy-4-((quinoxalin-5-ylamino)methyl)benzamide] | – | – | 1.95 ± 0.21 | GI50 (HL60 leukemia cell line): 5.58 ± 0.15 µM
O=C(NO)c1ccc(COc2cccc3cccnc23)cc1 [Compound 71, N-hydroxy-4-((quinolin-8-yloxy)methyl)benzamide] | 7.81 ± 1.17 | 6.23 ± 0.32 | – | IC50 (HDAC6): 0.011 µM
O=C(NO)c1ccc(NCc2cccc3cccnc23)cc1 [Compound 75, N-hydroxy-4-(quinolin-8-ylmethylamino)benzamide] | 6.32 ± 0.92 | > 10 | – | IC50 (HDAC1): 2.04 µM; IC50 (HDAC6): 0.011 µM
CN1CCc2c(c3ccccc3n2Cc2ccc(C(=O)NO)cc2)C1 [Tubastatin A, reference compound] | – | – | – | GI50 [1]: 52.2 ± 1.28 µM; GI50 [2]: 48.19 ± 0.43 µM

The next lines start with results.

GI50 ([1]; Homo sapiens) [µM] | GI50 ([2]; Homo sapiens) [µM] | GI50 [3] [µM] | SMILES | further results
2.73 ± 0.24 | 1.62 ± 0.2 | – | O=C(NO)c1ccc(CNc2cnc3ccccc3c2)cc1 [Compound 4, N-hydroxy-4-((quinolin-3-ylamino)methyl)benzamide] | IC50 (HDAC1): 0.78 µM; IC50 (HDAC6): 0.0191 µM
0.71 ± 0.01 | 0.38 ± 0.03 | – | O=C(/C=C/c1ccc(CNc2cnc3ccccc3c2)cc1)NO [Compound 6, (E)-N-hydroxy-3-(4-((quinolin-3-ylamino)methyl)phenyl)acrylamide] | –
> 10 | > 10 | – | O=C(NO)c1ccc(C(=O)Nc2cnc3ccccc3c2)cc1 [Compound 8, N^1-hydroxy-N^4-(quinolin-3-yl)terephthalamide] | –
> 10 | > 10 | – | O=C(/C=C/c1ccc(C(=O)Nc2cnc3ccccc3c2)cc1)NO [Compound 10, (E)-4-(3-(hydroxyamino)-3-oxoprop-1-enyl)-N-(quinolin-3-yl)benzamide] | –
1.25 ± 0.08 | 0.62 ± 0.05 | – | O=C(/C=C/c1ccc(CNc2cccc3ncccc23)cc1)NO [Compound 14, (E)-N-hydroxy-3-(4-((quinolin-5-ylamino)methyl)phenyl)acrylamide] | –
1.11 ± 0.05 | 1.25 ± 0.02 | – | O=C(/C=C/c1ccc(CNc2cccc3cccnc23)cc1)NO [Compound 30, (E)-N-hydroxy-3-(4-((quinolin-8-ylamino)methyl)phenyl)acrylamide] | –
4.26 ± 0.07 | 3.51 ± 0.18 | – | O=C(/C=C/c1ccc(C(=O)Nc2cccc3cccnc23)cc1)NO [Compound 34, (E)-4-(3-(hydroxyamino)-3-oxoprop-1-enyl)-N-(quinolin-8-yl)benzamide] | –
– | 0.85 ± 0.09 | 0.29 ± 0.02 | O=C(NO)c1ccc(CNc2ccc3ccccc3n2)cc1 [Compound 40, N-hydroxy-4-((quinolin-2-ylamino)methyl)benzamide] | –
– | 2.64 ± 0.14 | 0.62 ± 0.03 | O=C(NO)c1ccc(CNc2ccc3cccnc3c2)cc1 [Compound 42, N-hydroxy-4-((quinolin-7-ylamino)methyl)benzamide] | –
7.77 ± 0.03 | 2.08 ± 0.1 | – | O=C(NO)c1ccc(C(=O)NCc2cccc3cccnc23)cc1 [Compound 47, N^1-hydroxy-N^4-(quinolin-8-ylmethyl)terephthalamide] | –
– | 9.66 ± 0.07 | 3.05 ± 0.09 | O=C(NO)c1ccc(CCc2cccc3cccnc23)cc1 [Compound 52, N-hydroxy-4-(2-(quinolin-8-yl)ethyl)benzamide] | –
4.64 ± 0.25 | 6.06 ± 0.4 | – | O=C(NO)c1ccc(CNc2cccc3cnccc23)cc1 [Compound 54, N-hydroxy-4-((isoquinolin-5-ylamino)methyl)benzamide] | –
1.76 ± 0.21 | 4.91 ± 0.24 | – | O=C(NO)c1ccc(CNc2cccc3ccncc23)cc1 [Compound 56, N-hydroxy-4-((isoquinolin-8-ylamino)methyl)benzamide] | –
5.89 ± 0.42 | 4.45 ± 0.92 | – | Cc1ccc2cccc(NCc3ccc(C(=O)NO)cc3)c2n1 [Compound 68, N-hydroxy-4-(((2-methylquinolin-8-yl)amino)methyl)benzamide] | IC50 (HDAC1): 1.69 µM; IC50 (HDAC6): 0.0121 µM
6.11 ± 0.69 | 4.29 ± 0.7 | – | O=C(NO)c1ccc(CSc2cccc3cccnc23)cc1 [Compound 73, N-hydroxy-4-((quinolin-8-ylthio)methyl)benzamide] | IC50 (HDAC1): 2.2 µM; IC50 (HDAC6): 0.0234 µM
